Experimental data taken from the supplement of paper PMC10307832.

Legend:
Experiment in all cases: relative viability (nuclei count vs DMSO), 5 days (fraction); higher = more cells survive
AZD8055 + Linsitinib = compound: COc1ccc(-c2ccc3c(N4CCOC[C@@H]4C)nc(N4CCOC[C@@H]4C)nc3n2)cc1CO [AZD8055] + C[C@]1(O)C[C@@H](c2nc(-c3ccc4ccc(-c5ccccc5)nc4c3)c3c(N)nccn32)C1 [Linsitinib] (partner 1 µM)
Outline: (§1)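 Lung cancer cell lines in 1536-well plates were dosed by pin tool the day after seeding, either with one drug alone or with a fixed anchor-drug dose plus five library-drug doses (not always all listed) in √10 steps. After 5 days, cells were fixed and their nuclei stained in one step (final 0.05% Triton X-100, 1% formaldehyde, 1 ug/ml Hoechst), then counted on 4× images. Relative viability is the nuclei count in treated wells divided by that in vehicle wells. Values are medians of duplicate plates.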

AZD8055 + Pemetrexed = compound: COc1ccc(-c2ccc3c(N4CCOC[C@@H]4C)nc(N4CCOC[C@@H]4C)nc3n2)cc1CO [AZD8055] + Nc1nc2[nH]cc(CCc3ccc(C(=O)N[C@@H](CCC(=O)O)C(=O)O)cc3)c2c(=O)[nH]1 [Pemetrexed] (partner 0.2 µM)
Outline: as §1

AZD8055 + Vorinostat = compound: COc1ccc(-c2ccc3c(N4CCOC[C@@H]4C)nc(N4CCOC[C@@H]4C)nc3n2)cc1CO [AZD8055] + O=C(CCCCCCC(=O)Nc1ccccc1)NO [Vorinostat] (partner 1 µM)
Outline: as §1

AZD8055 + Olaparib = compound: COc1ccc(-c2ccc3c(N4CCOC[C@@H]4C)nc(N4CCOC[C@@H]4C)nc3n2)cc1CO [AZD8055] + O=C(c1cc(Cc2n[nH]c(=O)c3ccccc23)ccc1F)N1CCN(C(=O)C2CC2)CC1 [Olaparib] (partner 8 µM)
Outline: as §1

| Cell Line | relative viability (AZD8055 + Linsitinib; first compound 0.01 µM) | relative viability (AZD8055 + Linsitinib; first compound 0.03162 µM) | relative viability (AZD8055 + Linsitinib; first compound 0.1 µM) | relative viability (AZD8055 + Linsitinib; first compound 0.3162 µM) | relative viability (AZD8055 + Linsitinib; first compound 1 µM) | relative viability (AZD8055 + Pemetrexed; first compound 0.01 µM) | relative viability (AZD8055 + Pemetrexed; first compound 0.03162 µM) | relative viability (AZD8055 + Pemetrexed; first compound 0.1 µM) | relative viability (AZD8055 + Pemetrexed; first compound 0.3162 µM) | relative viability (AZD8055 + Pemetrexed; first compound 1 µM) | relative viability (AZD8055 + Vorinostat; first compound 0.01 µM) | relative viability (AZD8055 + Vorinostat; first compound 0.03162 µM) | relative viability (AZD8055 + Vorinostat; first compound 0.1 µM) | relative viability (AZD8055 + Vorinostat; first compound 0.3162 µM) | relative viability (AZD8055 + Vorinostat; first compound 1 µM) | relative viability (AZD8055 + Olaparib; first compound 0.01 µM) | relative viability (AZD8055 + Olaparib; first compound 0.03162 µM) | relative viability (AZD8055 + Olaparib; first compound 0.1 µM) | relative viability (AZD8055 + Olaparib; first compound 0.3162 µM) | relative viability (AZD8055 + Olaparib; first compound 1 µM) |
| --- | --- | --- | --- | --- | --- | --- | --- | --- | --- | --- | --- | --- | --- | --- | --- | --- | --- | --- | --- | --- |
| COR-L 105 | 0.833 | 0.941 | 0.5 | 0.315 | 0.297 | 1.3 | 1.16 | 1.29 | 0.664 | 0.485 | 0.865 | 0.766 | 0.805 | 0.516 | 0.421 | 0.738 | 0.741 | 0.707 | 0.455 | 0.448 |
| EKVX | 1.05 | 0.947 | 0.604 | 0.384 | 0.24 | 0.476 | 0.436 | 0.389 | 0.322 | 0.289 | 0.68 | 0.729 | 0.519 | 0.422 | 0.366 | 1 | 1.01 | 0.666 | 0.413 | 0.311 |
| EMC-BAC-2 | 0.784 | 0.65 | 0.53 | 0.337 | 0.3 | 0.501 | 0.465 | 0.474 | 0.396 | 0.316 | 0.445 | 0.342 | 0.303 | 0.263 | 0.287 | 0.391 | 0.465 | 0.395 | 0.272 | 0.244 |
| EPLC-272H | 1.1 | 0.926 | 0.669 | 0.404 | 0.373 | 0.361 | 0.363 | 0.369 | 0.321 | 0.331 | 0.331 | 0.401 | 0.343 | 0.144 | 0.261 | 0.627 | 0.589 | 0.333 | 0.281 | 0.245 |
| H3255 | 0.925 | 0.858 | 0.63 | 0.468 | 0.277 | 0.636 | 0.562 | 0.487 | 0.443 | 0.364 | 0.967 | 0.746 | 0.747 | 0.513 | 0.357 | 0.627 | 0.606 | 0.516 | 0.326 | 0.36 |
| HARA | 0.942 | 0.998 | 0.517 | 0.303 | 0.202 | – | 0.214 | 0.281 | 0.259 | 0.192 | 0.574 | 0.527 | 0.441 | 0.24 | 0.227 | – | 0.687 | 0.58 | 0.39 | 0.246 |
| HCC-15 | 0.778 | 0.808 | 0.644 | 0.467 | 0.29 | 0.241 | 0.236 | 0.209 | 0.238 | 0.241 | 0.833 | 0.844 | 0.762 | 0.468 | 0.333 | 0.776 | 0.697 | 0.643 | 0.47 | 0.35 |
| HCC-44 | 0.565 | 0.506 | 0.298 | 0.198 | 0.226 | 0.65 | 0.702 | 0.665 | 0.655 | 0.673 | 1.12 | 1.22 | 1.07 | 0.735 | 0.803 | 1.03 | 1.04 | 0.957 | 0.847 | 0.861 |
| HCC-78 | 0.442 | 0.355 | 0.222 | 0.195 | 0.177 | 0.967 | 0.865 | 0.855 | 0.88 | 0.896 | 0.428 | 0.394 | 0.38 | 0.398 | 0.321 | 0.758 | 0.632 | 0.54 | 0.388 | 0.383 |
| HCC-366 | 0.539 | 0.245 | 0.218 | 0.0598 | 0.0927 | 0.256 | 0.285 | 0.248 | 0.161 | 0.109 | 0.372 | 0.205 | 0.182 | 0.0725 | 0.0602 | 0.426 | 0.275 | 0.273 | 0.143 | 0.136 |
| HCC-827 | 0.97 | 0.971 | 0.932 | 0.794 | 0.469 | 0.278 | 0.242 | 0.239 | 0.275 | 0.216 | 0.849 | 0.882 | 0.89 | 0.521 | 0.397 | 0.651 | 0.523 | 0.494 | 0.281 | 0.172 |
| HOP-62 | 1.09 | 0.789 | 0.869 | 0.362 | 0.266 | 0.312 | 0.29 | 0.338 | 0.35 | 0.242 | 0.636 | 0.413 | 0.587 | 0.298 | 0.183 | 0.756 | 0.501 | 0.45 | 0.5 | 0.184 |
| LC-2-ad | 0.852 | 0.803 | 0.56 | 0.414 | 0.397 | 0.281 | 0.277 | 0.307 | 0.289 | 0.278 | 0.773 | 0.688 | 0.705 | 0.497 | 0.457 | 0.748 | 0.778 | 0.759 | 0.835 | 0.704 |
| LCLC-97TM1 | 0.182 | 0.143 | 0.13 | 0.122 | 0.139 | 0.18 | 0.158 | 0.168 | 0.168 | 0.132 | 0.751 | 0.585 | 0.414 | 0.354 | 0.308 | 0.413 | 0.308 | 0.216 | 0.105 | 0.0929 |
